Here are results for one molecule from publication PMC11375437, “Selective labelling of GBA2 in cells with fluorescent β-D-arabinofuranosyl cyclitol aziridines” (Chemical Science, 2024).

This assay has as its system GBA2. Put plainly: Labelling of GBA2 orthologue in zebrafish larvae homogenates. The assay is classed as biochemical, zebrafish (Danio rerio). To be noted: 1 h at 37 °C; ABP 3 and 7 at 1 μM, ABP 4 and 5 at 2.5 μM. As to the method: GBA2 orthologs are highly conserved among different species. […] The labelling capability of β-D-Araf aziridine ABPs toward GBA2 orthologs in these species was therefore evaluated. Homogenates of zebrafish larvae or mice brain homogenates were incubated with β-D-Araf ABPs 3–5 or broad-spectrum ABP 7 (Fig. 4).
Fig. 4 Fluorescent gel images of selective labelling of GBA2 orthologues by β-D-Araf aziridine ABPs in different species. Cyclophellitol-aziridine ABP 7 (1 μM) and β-D-Araf ABPs (ABP 3 at 1 μM and ABP 4 and 5 at 2.5 μM) were incubated with homogenates of zebrafish (15 μg total protein) and mice brain (15 μg total protein) for 1 h at 37 °C. […]
were transferred to nitrocellulose membrane for western blotting. Ponceau S staining was used to show total protein loading. […]
2.12 Reactivity of β-D-Araf aziridines towards GBA2 orthologue in other species β-D-Araf aziridine ABP 3-5 or ABP 7 was incubated with homogenates of zebrafish (Danio rerio) larvae or mice brain for 1 h at 37 °C. […] The zebrafish homogenates were passed through a desalting column (in the same way as described for the irreversibility evaluation above) to remove interference from biological pigments when scanning at λEX 473 nm and λEM ≥ 510 nm for BODIPY green fluorescence. […]

For the molecule `CN1/C(=C/C=C/C=C/C2=[N+](CCCCCC(=O)NCc3cn(CCCCCCCCN4[C@@H]5[C@H](CO)[C@@H](O)[C@H](O)[C@@H](O)[C@@H]54)nn3)c3ccccc3C2(C)C)C(C)(C)c2ccccc21` (stereo partly shown) [ABP 7], the “Labelling selectivity in zebrafish larvae homogenates” value is “show cross-reactivity towards GBA1”.
